Here are results for five compounds from publication PMC5325712 (Journal of medicinal chemistry, 2017).

The test system of experiment [1] is D2R. The conditions noted are these: at concentrations over 50 μM; cited from earlier work.
In experiment [2] the target is D2R long isoform (Homo sapiens, UniProt P14416). Nature of the experiment: β-arrestin recruitment assay. The class given is cell-based. The note with it: dopamine curve-shift / inhibition of dopamine stimulation.
Experiment [3] deals with T1, D3R (Homo sapiens, UniProt P35462). The experiment can be described thus: β-arrestin recruitment assay. The conditions noted are these: dopamine curve-shift assays, best fit by F-test.
T1 sequence (P35462 whole entry): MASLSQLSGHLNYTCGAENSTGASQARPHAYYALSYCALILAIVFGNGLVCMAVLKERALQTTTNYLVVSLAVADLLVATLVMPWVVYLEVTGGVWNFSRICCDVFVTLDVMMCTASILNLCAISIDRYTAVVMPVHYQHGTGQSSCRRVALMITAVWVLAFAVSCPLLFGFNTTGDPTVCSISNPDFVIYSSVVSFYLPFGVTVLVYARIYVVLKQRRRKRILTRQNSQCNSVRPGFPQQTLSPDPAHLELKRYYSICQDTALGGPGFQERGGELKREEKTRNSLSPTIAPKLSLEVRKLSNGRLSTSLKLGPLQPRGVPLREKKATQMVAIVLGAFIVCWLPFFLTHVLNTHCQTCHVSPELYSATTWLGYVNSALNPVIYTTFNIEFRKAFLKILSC
The target in experiment [4] is T1, D3R. The note with it: Table 1; ratio of binding Ki values D2R/D3R.
Experiment [5] has as its target D3R. The note with it: read-out: D3R receptor binding affinities; cited from earlier work.
The subject of experiment [6] is D2R. The note with it: 6 compared to 5; cited from earlier work.

Sequence of D2R long isoform (P14416 whole entry, canonical isoform): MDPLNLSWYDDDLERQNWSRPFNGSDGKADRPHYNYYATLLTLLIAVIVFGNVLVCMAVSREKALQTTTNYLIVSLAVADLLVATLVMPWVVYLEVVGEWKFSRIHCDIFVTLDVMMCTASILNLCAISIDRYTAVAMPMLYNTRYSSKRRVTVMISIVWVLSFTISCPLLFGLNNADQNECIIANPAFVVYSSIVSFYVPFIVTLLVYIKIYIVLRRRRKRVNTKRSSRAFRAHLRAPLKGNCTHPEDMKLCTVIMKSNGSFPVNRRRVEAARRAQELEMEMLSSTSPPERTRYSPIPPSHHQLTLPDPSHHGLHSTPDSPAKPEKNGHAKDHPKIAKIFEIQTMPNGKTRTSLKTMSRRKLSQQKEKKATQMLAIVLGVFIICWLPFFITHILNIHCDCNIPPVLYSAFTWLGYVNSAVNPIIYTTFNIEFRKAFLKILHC

Turning to `CC(C)NC(=O)c1cc2ccccc2[nH]1` [Compound 13b], the “mode of action at the D2R” value in experiment [1] is on record as “allosteric antagonist of the D2R with modest negative cooperativity with dopamine”.

As for `CCN1CCCC1CNC(=O)c1cc(S(N)(=O)=O)ccc1OC` (stereo not shown) [sulpiride], the “mechanism of antagonism at the D2R” value in experiment [2] is “competitive antagonist”. In addition, the “mechanism of antagonism at the D3R” value in experiment [3] is “competitive antagonist”.

As to `N#Cc1cccc(N2CCNCC2)c1` [Compound 8, 3-(Piperazin-1-yl)benzonitrile], in experiment [4], the D2/D3 is 7.5–9.1.

Regarding `O=C(NC/C=C/CN1CCN(c2cccc(Cl)c2Cl)CC1)c1ccc(-c2ccccn2)cc1` [Compound 6], in experiment [5], the Ki was around 1 nM. Further, the “lower affinity at D2R” value in experiment [6] is ~ 2 fold.

In the case of `N#Cc1ccc2c(c1)CNCC2` [Compound 9b, 7-cyano-1,2,3,4-tetrahydroisoquinoline], the D2/D3 in experiment [4] was 7.5–9.1.
